The test relates to T2 cell line for lysis by clone 5H17. The test is described as follows: 51Cr release assay: peptide sensitization of T2 for lysis by HA-2 specific CTL clone 5H17. The class given is cell-based, human. To be noted: T2 cells.

Where no end group is shown, it is not given here.

Consider “YXGEVXVSV (X: residue not identified in the source) [synthetic peptide mixture, X stands for L or I]”, for which the “HA-2 specific sensitizing CTL activity (lysis of T2)” value was “resulted in lysis of T2”.

Values taken from patent publication US5770201A, “HA-2 antigenic peptide” (Rijsuniversiteit Te Leiden, priority 1994, dated 1998).
